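Exposure lasted 48 hours, with cells grown in 96-well plates and compounds tested at five concentrations. GI50 = concentration required for 50% inhibition of growth. TGI marks complete inhibition of growth.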
Experiments:
Assay in all cases: inhibition of tumour cell growth, NCI panel, 48 h
786-0 renal = test system: 786-0 renal
A498 renal = test system: A498 renal
A549 NSCLC = test system: A549 NSCLC
ACHN renal = test system: ACHN renal
BT-549 breast = test system: BT-549 breast
CAKI-1 renal = test system: CAKI-1 renal
CCRF-CEM leukemia = test system: CCRF-CEM leukemia
COLO 205 colon = test system: COLO 205 colon
DU-145 prostate = test system: DU-145 prostate
HCC-2998 colon = test system: HCC-2998 colon
HCT-116 colon = test system: HCT-116 colon
HCT-15 colon = test system: HCT-15 colon
HL-60(TB) leukemia = test system: HL-60(TB) leukemia
HOP-62 NSCLC = test system: HOP-62 NSCLC
HS 578T breast = test system: HS 578T breast
HT29 colon = test system: HT29 colon
IGROV1 ovarian = test system: IGROV1 ovarian
K-562 leukemia = test system: K-562 leukemia
KM12 colon = test system: KM12 colon
LOX IMVI melanoma = test system: LOX IMVI melanoma
M14 melanoma = test system: M14 melanoma
MCF7 breast = test system: MCF7 breast
MDA-MB-231 breast = test system: MDA-MB-231 breast
MDA-MB-435 = test system: MDA-MB-435
MOLT-4 leukemia = test system: MOLT-4 leukemia
NCI-H226 lung = test system: NCI-H226 lung

In the case of `Brc1ccc(SCN(CSc2ccc(Br)cc2)Cc2ccccc2)cc1`, the GI50 (786-0 renal) is reported as 4.3 µM, the TGI (786-0 renal) is reported as 15.5 µM and the GI50 (A498 renal) is reported as 1.51 µM. It also gave a TGI (A498 renal) of 3.47 µM, a GI50 (A549 NSCLC) of 2.41 µM and a TGI (A549 NSCLC) of 11 µM. The GI50 (ACHN renal) was 4.49 µM, the TGI (ACHN renal) was 19 µM and the GI50 (BT-549 breast) was 1.75 µM. It also gave a TGI (BT-549 breast) of 3.9 µM, a GI50 (CAKI-1 renal) of 3.47 µM and a TGI (CAKI-1 renal) of 12.5 µM. It also gave a GI50 (CCRF-CEM leukemia) of 2.1 µM, a TGI (CCRF-CEM leukemia) of 7.4 µM and a GI50 (COLO 205 colon) of 3.85 µM. For the same molecule, the TGI (COLO 205 colon) was 13.7 µM, the GI50 (DU-145 prostate) was 6.12 µM and the TGI (DU-145 prostate) was 21 µM. The GI50 (HCC-2998 colon) was 11.5 µM, the TGI (HCC-2998 colon) was 25.5 µM and the GI50 (HCT-116 colon) was 3.66 µM. For the same molecule, the TGI (HCT-116 colon) was 14.4 µM, the GI50 (HCT-15 colon) was 3.56 µM and the TGI (HCT-15 colon) was 18.8 µM. The GI50 (HL-60(TB) leukemia) was 2.35 µM, the TGI (HL-60(TB) leukemia) was 5.36 µM and the GI50 (HOP-62 NSCLC) was 3.2 µM. The TGI (HOP-62 NSCLC) was 14.2 µM, the GI50 (HS 578T breast) was 2.98 µM and the TGI (HS 578T breast) was > 100 µM. The GI50 (HT29 colon) was 5.05 µM, the TGI (HT29 colon) was 18 µM and the GI50 (IGROV1 ovarian) was 2.64 µM. It also gave a TGI (IGROV1 ovarian) of 7.25 µM, a GI50 (K-562 leukemia) of 5.44 µM and a TGI (K-562 leukemia) of 60.6 µM. It also gave a GI50 (KM12 colon) of 2.67 µM, a TGI (KM12 colon) of 10.9 µM and a GI50 (LOX IMVI melanoma) of 1.61 µM. It also gave a TGI (LOX IMVI melanoma) of 3.19 µM, a GI50 (M14 melanoma) of 3.79 µM and a TGI (M14 melanoma) of 14.2 µM. The GI50 (MCF7 breast) was 3.06 µM, the TGI (MCF7 breast) was 13.3 µM and the GI50 (MDA-MB-231 breast) was 1.69 µM. The TGI (MDA-MB-231 breast) was 4.3 µM, the GI50 (MDA-MB-435) was 3.1 µM and the TGI (MDA-MB-435) was 12.2 µM. It also gave a GI50 (MOLT-4 leukemia) of 2.37 µM, a TGI (MOLT-4 leukemia) of 6.82 µM and a GI50 (NCI-H226 lung) of 1.93 µM. The TGI (NCI-H226 lung) was 4.39 µM.
